Data from article PMC12183619, “A Phase 1 Safety Study of Evexomostat (SDX-7320) in Patients with Late-Stage Cancer: An Antiangiogenic, Insulin-Sensitizing Drug Conjugate Targeting METAP2” (Cancer Research Communications, 2025).
Blank lines part the entries; values can stand above or below the compound they belong to.

Key:
[1] = Plasma pharmacokinetics by LC/MS-MS after subcutaneous dosing; format: in vivo, human
Procedure: Blood samples were collected to enable PK bioanalyses at the following timepoints: cycles 1, 3, and 6: predose, 3, 6, 24, 48, and 96 hours after dosing, and days 8 (predose on the Q7D schedule), 15 (predose) and 22 (predose on the Q7D schedule); cycles 2, 4, 5, 7, and beyond: days 1 (predose), 8 (predose on the Q7D schedule), 15 (predose), and 22 (predose on the Q7D schedule). PK samples were collected on day 1 (predose, 3, 6, and 24 hours) for cycle 1 and then predose days 1 and 15 for even cycles and predose for odd cycles thereafter. Analysis of exploratory biomarkers was conducted using commercially available ELISA kits.
The levels of the released small-molecule METAP2 inhibitor SDX-7539 in plasma were measured using a validated LC/MS-MS method with a lower limit of quantification (LLOQ) of 10.0 pg/mL. The levels of the polymer–drug conjugate evexomostat in plasma were measured using a fit-for-purpose LC/MS-MS method. Target engagement was assessed at various times postdose in lysed whole blood using a validated ELISA designed to measure uninhibited METAP2 ([25]).
Analyses were conducted using SAS v 9.4 (SAS Institute) unless otherwise noted. AEs were coded in MedDRA v18.1 and analyzed by system organ class/preferred term. Treatment-related AEs (TRAE) were tabulated for all events occurring in two patients or more. Response was assessed using RECIST v1.1. PK analysis utilized WinNonlin v8.1 and a noncompartmental analysis approach.

patients = tested on: patients; set-up: method as in PMID 10473076, PMID 12431966; conditions: prior clinical trials; cited from earlier work
VEGF-D = tested on: VEGF-D; set-up: method as in PMID 17605814, PMID 24220935; conditions: cited from earlier work
METAP2 = tested on: METAP2; set-up: method as in PMID 16525646, PMID 9177176, PMID 10574784; conditions: inactivates aminopeptidase activity; cited from earlier work
[2] = released active moiety after subcutaneous evexomostat

relationship of plasma Cmax and AUC in cycle 1 with reductions in platelets ([1]; % change from baseline to C1D8 or C1D15): potential relationship | time with detectable plasma levels ([1]; following a single dose of evexomostat): 7 days | plasma exposure (Cmax, AUC0-t) vs dose ([1]; released SDX-7539 vs administered dose of SDX-7320): variability with increasing dose | Tmax in plasma [1, 2]: 29 h | Tmax in plasma, range [1, 2]: 6 to 96 h
SMILES: CO[C@@H]1[C@H](OC(=O)NC2CCC(N)CC2)CC[C@]2(CO2)[C@H]1[C@@]1(C)O[C@@H]1CC=C(C)C (some centres unmarked) [SDX-7539]

SMILES: CO[C@@H]1[C@H](OC(=O)NC(=O)CCl)CC[C@]2(CO2)[C@H]1[C@@]1(C)O[C@@H]1CC=C(C)C [TNP-470]
dose-limiting CNS toxicities (patients): dose-limiting CNS toxicities were observed

SMILES: CCN(CC)CCNC(=O)c1c(C)[nH]c(/C=C2\C(=O)Nc3ccc(F)cc32)c1C [sunitinib]
change in circulating VEGF-D (VEGF-D): increase circulating VEGF-D

SMILES: CO[C@@H]1[C@H](OC(=O)/C=C/C=C/C=C/C=C/C(=O)O)CC[C@]2(CO2)[C@H]1[C@@]1(C)O[C@@H]1CC=C(C)C [Fumagillin]
binding to METAP2 (METAP2): potently and irreversibly binds to METAP2
